US20020025296A1, “Combined use of nucleoside analogues and gene transfection for tissue imaging and therapy” (priority 1994, published 2002)
One block for each compound: values may come before it.

What was measured:
[1] = system: KBALB-STK cells that express HSV-1 TK; assay: In vitro cellular uptake of radiopharmaceuticals in transduced or non-transduced sarcoma cell lines; format: cell-based; settings: KBALB-STK cells relative to KBALB or KBALB-LNL cells, 37° C.
Protocol: The KBALB sarcoma models used in these studies are derived by exposing wild-type KBALB cells to Moloney murine leukemia virus (MMLV) producer cell supernatants containing replication incompetent ecotropic retroviruses. […] These transduced cell lines are cultured in media containing the antibiotic G-418 to select for those cells expressing the neomycin resistance gene.
KBALB-STK, KBALB-LNL, or wild type KBALB cells were grown to confluency in 24 well culture plates. [^125I]-IVDU (sp. act.=12 Gbq/mmol), [^125I]-1VFRU (sp. act.=11 Gbq/mmol), [^131′I]-IVDU-CDS (sp. act.=2.8 Gbq/mmol) or [^131I]-IVFRU-CDS (sp. act.=4.3 Gbq/mmol) were added to each well in 100 μL saline solution and incubated at 37° C. At varying times after exposure to the test compound, the supernatant was removed, the cells rinsed with saline, and the adherent cells were then trypsinized prior to their removal. Cellular uptake -was determined by gamma counting using a Beckmann 8000 gamma counter.

[2] = system: KBALB-STK tumors; assay: Biodistribution in mice bearing KBALB-STK tumors; format: in vivo
Protocol: (§1) KBALB or KBALB-STK cells (1×10^5 cells) were injected subcutaneously into the flank of male Balb-c mice. Palpable tumors appeared 14 days after injection. [^131I]-IVFRU (370 KBq, sp. act. 59 Gbq/mmol) was injected via the tail vein into each tumor bearing animal. Three animals were sacrificed and dissected at each time interval. The radioactivity uptake by selected tissues of interest were determined using a Beckman 8000 gamma counter. Tissue uptake is expressed as a percentage of the administered dose per gram of tissue versus time in FIGS. 3 and 4. The tumor to blood ratio is presented for both tumor models in FIG. 5.

[3] = system: KBALB tumors; assay: Biodistribution in mice bearing wild type KBALB tumors; format: in vivo; settings: relative to KBALB-STK tumors
Protocol: as §1

[4] = system: KBALB-STK tumors expressing HSV-1 TK; assay: Scintigraphic imaging of KBALB-STK tumors; format: in vivo, mice; settings: 8 hours after administration
Protocol: (§2) BALB-STK cells (1×10^5 cells) were injected subcutaneously into the flank of 12 Balb-c mice. All inoculated animals developed palpable tumors suitable for imaging after 14 days at which time the tumors were approximately 10 mm in diameter. Static images were obtained following injection of 3.7 Mbq of [^131I]-VFRU (sp. act.=252 Gbq/mmol) via the tail vein. Animals were placed in the prone position under a pinhole collimator using a Searle gamma camera (Scintiview) with data manipulated on an ADAC computer (DPS 3300). Images were acquired over 15 minutes using a 256×256 matrix. After initial imaging, a group of animals (n=6) were administered an intraparietoneal (ip) injection of ganciclovir (100 mg/kg) once daily for seven consecutive days. The control group (n=6) received daily saline injections. After four days, the animals were administered [^131I]-IVFRU as described previously and imaging was performed using the same acquisition protocol described above. It was noted that the treatment group tumor size had shrunk to an average size of less than 5 mm. […] The tumors in the saline administered control animals continued to grow until termination of the experiment. […] The scintigram, presented as FIG. 7, is for the same animal 8 hours after [^131I]-IVFRU administration following 4 days of ganciclovir treatment.

[5] = Partition coefficients (log P), n-octanol/water, modified shake-flask technique with UV quantitation; format: physicochemical; settings: n-octanol and water (1:1, v/v)
Protocol: Partition coefficients (log P) were measured by determining the distribution of the test compound between a presaturated mixture of n-octanol and water (1:1, v/v). The analytical method consisted of a modified shake-flask technique and ultraviolet (UV) spectrometry quantitation after centrifugal separation of the two phases. The concentration of the test compound in the octanol phase prior to distribution was 0.5 mM. The dihydropyridine chromophore (λmax=360 nm) was used for quantitative UV analysis of IVDU-CDS and IVFRU-CDS, for which the results are shown in Table 1.

[6] = Stability of the preferred compounds; settings: comparison among preferred compounds
[7] = Pseudo-first order oxidation of the 1-methyl-1,4-dihydropyridine-CDS in mouse blood, brain homogenate and liver homogenate; format: in vitro ADME; settings: 37° C.; for k, oxidation rate, brain / t1/2, oxidation, brain: 20% mouse brain homogenate; for k, oxidation rate, blood / t1/2, oxidation, blood: 50% mouse blood
Protocol: Pseudo-first order rate constants and half-lives for the oxidation of IVDU-CDS and IVFRU-CDS were determined in 50% mouse blood, 20% mouse brain homogenate and 20% mouse liver homogenate. A solution of the test compound in DMSO (10 Mm) was added to each matrix and incubated at 37° C. At various times after test compound addition, an aliquot was removed and added to acetonitrile (100 μL). The samples were immediately centrifuged and the supernatant was analyzed by quantitative reverse phase HPLC. The rate of disappearance of the 1-methyl-1,4-dihydropyridine-CDS was determined by UV detection at 360 nm.

[8] = system: KBALB-STK tumors; assay: Ganciclovir treatment of mice bearing KBALB-STK tumors; format: in vivo; settings: 100 mg/kg ip once daily
Protocol: as §2

[9] = target: HSV-1 TK (Human herpesvirus 1, UniProt P0DTH5); assay: Substrate property for the gene expression product HSV-1 TK; format: biochemical, herpes simplex virus type 1
Chain of HSV-1 TK (P0DTH5 whole entry): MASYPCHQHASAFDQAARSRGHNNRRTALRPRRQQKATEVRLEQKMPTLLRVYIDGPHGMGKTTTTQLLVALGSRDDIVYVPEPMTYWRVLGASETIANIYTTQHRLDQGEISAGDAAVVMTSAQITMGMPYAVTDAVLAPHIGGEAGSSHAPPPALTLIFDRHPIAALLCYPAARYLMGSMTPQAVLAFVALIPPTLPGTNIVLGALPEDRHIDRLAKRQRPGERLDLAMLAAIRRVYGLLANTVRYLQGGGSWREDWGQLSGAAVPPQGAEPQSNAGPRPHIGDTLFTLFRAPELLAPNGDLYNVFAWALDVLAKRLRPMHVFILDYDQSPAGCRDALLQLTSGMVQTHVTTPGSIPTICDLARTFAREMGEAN

SMILES: O=c1[nH]c(=O)n([C@H]2C[C@H](O)[C@@H](CO)O2)cc1C=C[125I] [[^125I]-VDU]
cellular uptake [1]: selective uptake

SMILES: O=c1[nH]c(=O)n([C@@H]2O[C@H](CO)[C@@H](O)[C@@H]2F)cc1C=C[125I] [[^125I]-IVFRU]
cellular uptake [1]: selective uptake

SMILES: O=c1[nH]c(=O)n(C2OC(CO)C(O)C2F)cc1/C=C/[131I] (stereo not shown) [[^131I]-IVFRU, [^131I]-(E)-5-(2-iodovinyl)-2′-fluoro-2′-deoxyuridine]
peak tumor/blood ratio ([2]; KBALB-STK tumors, 8 hours post injection, tail vein): approximately 3 | tumor uptake ([2]; tumors expressing HSV-1 TK): Preferential tumor uptake | tumor/blood ratios ([3]; all time points): much lower | tumor radioactivity [3]: significantly less | activity in region of the shrinking tumor remnant (scintigram) ([4]; following 4 days of ganciclovir treatment): relatively devoid of activity | uptake into tumor (scintigram) ([4]; prior to ganciclovir treatment): selective uptake

SMILES: O=c1[nH]c(=O)n([C@H]2C[C@H](O)[C@@H](CO)O2)cc1/C=C/I [IVDU, (E)-5-(2-iodovinyl)-2′-deoxyuridine]
logP [5]: 1.1 | stability [6]: less stable than IVFRU, IVFAU and IVAU

log P [5]: 1.83 | k, oxidation rate, brain [7]: 0.0031 min⁻¹ | t1/2, oxidation, brain [7]: 3.72 h | k, oxidation rate, liver ([7]; 20% mouse liver homogenate): 0.00531 min⁻¹ | t1/2, oxidation, liver ([7]; 20% mouse liver homogenate): 2.17 h | k, oxidation rate, blood [7]: 0.0027 min⁻¹ | t1/2, oxidation, blood [7]: 4.27 h
SMILES: CN1C=CCC(C(=O)O[C@H]2[C@@H](F)[C@H](n3cc(/C=C/I)c(=O)[nH]c3=O)O[C@@H]2CO)=C1 [IVFRU-CDS, (E)-5-(2-iodovinyl)-3′-O-(1-methyl-1,4-dihydropyridyl-3-carbonyl)-2′-fluoro-2′-deoxyuridine]

SMILES: Nc1nc(O)c2ncn(COC(CO)CO)c2n1 [ganciclovir]
tumor response ([8]; after 7 days of treatment, all treated animals): completely regressed | average tumor size ([8]; after four days, tumors approximately 10 mm at start): less than 5 mm

log P [5]: 1.77 | k, oxidation rate, brain [7]: 0.00961 min⁻¹ | t1/2, oxidation, brain [7]: 1.2 h | k, oxidation rate, liver ([7]; 20% mouse liver homogenate): 0.01081 min⁻¹ | k, oxidation rate, blood [7]: 0.00522 min⁻¹ | t1/2, oxidation, blood [7]: 2.22 h | stability [6]: more stable
SMILES: CN1C=CCC(C(=O)O[C@H]2C[C@H](n3cc(/C=C/I)c(=O)[nH]c3=O)O[C@@H]2CO)=C1 [IVDU-CDS, (E)-5-(2-iodovinyl)-3′-O-(1-methyl-1,4-dihydropyridyl-3-carbonyl)-2′-deoxyuridine]

SMILES: O=c1[nH]c(=O)n([C@@H]2O[C@H](CO)[C@@H](O)[C@H]2F)cc1/C=C/I [IVFRU, (E)-5-(2-iodovinyl)-2′-fluoro-2′-deoxyuridine]
logP [5]: 1.21

SMILES: O=c1[nH]c(=O)n([C@@H]2O[C@H](CO)[C@@H](O)[C@H]2F)cc1/C=C/[123I] [^123I-IVFRU]
substrate for HSV-1 TK [9]: substrate
